According to paper PMC9150124, “Design of a Potent, Selective, and Brain-Penetrant Inhibitor of Wnt-Deactivating Enzyme Notum by Optimization of a Crystallographic Fragment Hit” (Journal of Medicinal Chemistry, 2022):

Tests used:
Experiment in all cases: SelectScreen kinase profiling, SSBK ZLyte SP Technology
Format in all cases: biochemical
[1] = target: kinase named in conditions (Homo sapiens, UniProt P22455); details: FGFR4, 10 μM
Method: (§1) Kinase selectivity screening was performed by Thermo Fisher Scientific (Paisley, U.K.) in their SelectScreen Biochemical Kinase Profiling Service. Assay information and data are presented in the Supporting Information.
(§2) Kinase selectivity screening was performed by ThermoFisher Scientific (Paisley, U.K.) in their SelectScreenTM
(§3) Biochemical Kinase Profiling service .

[2] = target: kinase named in conditions (Homo sapiens, UniProt P07949, Y791F); details: RET Y791F, 10 μM
Method: as §1, §2, §3

[3] = target: kinase named in conditions (Homo sapiens, UniProt Q04759); details: PRKCQ (PKC theta), 10 μM
Method: as §1, §2, §3

[4] = target: kinase named in conditions (Homo sapiens, UniProt P00519, E255K); details: ABL1 E255K, 10 μM
Method: as §1, §2, §3

[5] = target: kinase named in conditions (Homo sapiens, UniProt P43250); details: GRK6, 10 μM
Method: as §1, §2, §3

[6] = target: kinase named in conditions (Homo sapiens, UniProt P49674); details: CSNK1E (CK1 epsilon), 10 μM
Method: as §1, §2, §3

[7] = target: kinase named in conditions (Homo sapiens, UniProt Q9NWZ3); details: IRAK4, 10 μM
Method: as §1, §2, §3

[8] = target: kinase named in conditions (Homo sapiens, UniProt Q8NE63); details: HIPK4, 10 μM
Method: as §1, §2, §3

[9] = target: kinase named in conditions (Homo sapiens, UniProt P34947); details: GRK5, 10 μM
Method: as §1, §2, §3

[10] = target: kinase named in conditions (Homo sapiens, UniProt Q9P0L2); details: MARK1 (MARK), 10 μM
Method: as §1, §2, §3

[11] = target: kinase named in conditions (Homo sapiens, UniProt P07332); details: FES (FPS), 10 μM
Method: as §1, §2, §3

[12] = target: kinase named in conditions (Homo sapiens, UniProt P19784); details: CSNK2A2 (CK2 alpha 2), 10 μM
Method: as §1, §2, §3

[13] = target: kinase named in conditions (Homo sapiens, UniProt P16234, T674I); details: PDGFRA T674I, 10 μM
Method: as §1, §2, §3

[14] = target: kinase named in conditions (Homo sapiens, UniProt Q9HCP0); details: CSNK1G1 (CK1 gamma 1), 10 μM
Method: as §1, §2, §3

[15] = target: kinase named in conditions (Homo sapiens, UniProt P00533, L858R/T790M); details: EGFR (ErbB1) T790M L858R, 10 μM
Method: as §1, §2, §3

[16] = target: kinase named in conditions (Homo sapiens, UniProt P10721, V559D); details: KIT V559D, 10 μM
Method: as §1, §2, §3

[17] = target: kinase named in conditions (Homo sapiens, UniProt P09769); details: FGR, 10 μM
Method: as §1, §2, §3

[18] = target: kinase named in conditions (Homo sapiens, UniProt Q6VAB6); details: KSR2, 10 μM
Method: as §1, §2, §3

[19] = target: kinase named in conditions (Homo sapiens, UniProt Q9UL54); details: TAOK2 (TAO1), 10 μM
Method: as §1, §2, §3

[20] = target: kinase named in conditions (Homo sapiens, UniProt O14757); details: CHEK1 (CHK1), 10 μM
Method: as §1, §2, §3

[21] = target: kinase named in conditions (Homo sapiens, UniProt Q9UK32); details: RPS6KA6 (RSK4), 10 μM
Method: as §1, §2, §3

[22] = target: kinase named in conditions (Homo sapiens, UniProt Q13882); details: PTK6 (Brk), 10 μM
Method: as §1, §2, §3

[23] = target: kinase named in conditions (Homo sapiens, UniProt P23443); details: RPS6KB1 (p70S6K), 10 μM
Method: as §1, §2, §3

[24] = target: kinase named in conditions (Homo sapiens, UniProt P49841); details: GSK3B (GSK3 beta), 10 μM
Method: as §1, §2, §3

[25] = target: kinase named in conditions (Homo sapiens, UniProt Q96PY6); details: NEK1, 10 μM
Method: as §1, §2, §3

[26] = target: kinase named in conditions (Homo sapiens, UniProt Q9UHD2); details: TBK1, 10 μM
Method: as §1, §2, §3

[27] = target: kinase named in conditions (Homo sapiens, UniProt P51957); details: NEK4, 10 μM
Method: as §1, §2, §3

[28] = target: kinase named in conditions (Homo sapiens, UniProt P08631); details: HCK, 10 μM
Method: as §1, §2, §3

[29] = target: kinase named in conditions (Homo sapiens, UniProt Q02750); details: MAP2K1 (MEK1), 10 μM
Method: as §1, §2, §3

[30] = target: kinase named in conditions (Homo sapiens, UniProt P49761); details: CLK3, 10 μM
Method: as §1, §2, §3

[31] = target: kinase named in conditions (Homo sapiens, UniProt P54764); details: EPHA4, 10 μM
Method: as §1, §2, §3

[32] = target: kinase named in conditions (Homo sapiens, UniProt O96013); details: PAK4, 10 μM
Method: as §1, §2, §3

[33] = target: kinase named in conditions (Homo sapiens, UniProt P48729); details: CSNK1A1 (CK1 alpha 1), 10 μM
Method: as §1, §2, §3

[34] = target: kinase named in conditions (Homo sapiens, UniProt P16234, V561D); details: PDGFRA V561D, 10 μM
Method: as §1, §2, §3

kinase named in conditions (Homo sapiens, UniProt P48729), sequence (P48729 whole entry): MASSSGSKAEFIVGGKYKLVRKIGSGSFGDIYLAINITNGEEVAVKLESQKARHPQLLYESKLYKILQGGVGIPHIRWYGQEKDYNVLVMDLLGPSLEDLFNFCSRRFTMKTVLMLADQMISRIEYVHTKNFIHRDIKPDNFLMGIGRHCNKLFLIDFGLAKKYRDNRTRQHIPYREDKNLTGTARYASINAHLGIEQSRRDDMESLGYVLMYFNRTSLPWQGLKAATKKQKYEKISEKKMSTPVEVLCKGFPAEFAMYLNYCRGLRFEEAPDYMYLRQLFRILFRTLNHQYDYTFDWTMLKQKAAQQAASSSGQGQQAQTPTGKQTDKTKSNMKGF
kinase named in conditions (Homo sapiens, UniProt Q96PY6), sequence (Q96PY6 whole entry): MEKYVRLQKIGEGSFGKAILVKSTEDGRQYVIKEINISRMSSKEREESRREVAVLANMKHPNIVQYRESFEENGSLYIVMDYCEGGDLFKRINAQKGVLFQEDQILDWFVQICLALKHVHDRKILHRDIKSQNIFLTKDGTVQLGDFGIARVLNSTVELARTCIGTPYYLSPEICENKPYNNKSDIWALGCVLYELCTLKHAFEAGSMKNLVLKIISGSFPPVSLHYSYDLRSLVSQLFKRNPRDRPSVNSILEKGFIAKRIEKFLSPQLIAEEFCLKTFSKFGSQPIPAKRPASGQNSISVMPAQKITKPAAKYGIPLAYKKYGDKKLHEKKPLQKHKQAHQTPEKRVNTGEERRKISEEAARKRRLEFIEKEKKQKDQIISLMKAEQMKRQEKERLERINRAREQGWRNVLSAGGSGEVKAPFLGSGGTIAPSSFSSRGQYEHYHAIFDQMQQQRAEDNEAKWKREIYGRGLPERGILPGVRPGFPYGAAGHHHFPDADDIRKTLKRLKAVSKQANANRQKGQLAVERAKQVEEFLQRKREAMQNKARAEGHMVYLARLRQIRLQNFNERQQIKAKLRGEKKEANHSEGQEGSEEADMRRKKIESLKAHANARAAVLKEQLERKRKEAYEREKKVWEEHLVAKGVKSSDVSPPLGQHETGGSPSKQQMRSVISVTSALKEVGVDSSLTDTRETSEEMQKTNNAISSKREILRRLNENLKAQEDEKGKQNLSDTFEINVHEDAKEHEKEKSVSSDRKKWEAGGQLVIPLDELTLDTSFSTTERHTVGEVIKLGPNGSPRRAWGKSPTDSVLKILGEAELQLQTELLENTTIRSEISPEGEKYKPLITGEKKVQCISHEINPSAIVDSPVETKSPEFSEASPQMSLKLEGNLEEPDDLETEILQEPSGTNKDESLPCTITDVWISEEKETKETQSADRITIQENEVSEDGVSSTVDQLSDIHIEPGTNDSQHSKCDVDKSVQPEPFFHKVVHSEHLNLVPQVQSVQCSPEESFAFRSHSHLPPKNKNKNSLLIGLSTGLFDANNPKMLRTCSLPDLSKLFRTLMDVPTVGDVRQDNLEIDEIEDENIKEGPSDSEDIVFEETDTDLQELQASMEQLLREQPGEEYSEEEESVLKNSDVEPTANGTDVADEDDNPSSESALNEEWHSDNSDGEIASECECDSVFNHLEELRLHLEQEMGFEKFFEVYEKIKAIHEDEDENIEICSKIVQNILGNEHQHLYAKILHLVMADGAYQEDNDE
kinase named in conditions (Homo sapiens, UniProt Q9UHD2), sequence (Q9UHD2 whole entry): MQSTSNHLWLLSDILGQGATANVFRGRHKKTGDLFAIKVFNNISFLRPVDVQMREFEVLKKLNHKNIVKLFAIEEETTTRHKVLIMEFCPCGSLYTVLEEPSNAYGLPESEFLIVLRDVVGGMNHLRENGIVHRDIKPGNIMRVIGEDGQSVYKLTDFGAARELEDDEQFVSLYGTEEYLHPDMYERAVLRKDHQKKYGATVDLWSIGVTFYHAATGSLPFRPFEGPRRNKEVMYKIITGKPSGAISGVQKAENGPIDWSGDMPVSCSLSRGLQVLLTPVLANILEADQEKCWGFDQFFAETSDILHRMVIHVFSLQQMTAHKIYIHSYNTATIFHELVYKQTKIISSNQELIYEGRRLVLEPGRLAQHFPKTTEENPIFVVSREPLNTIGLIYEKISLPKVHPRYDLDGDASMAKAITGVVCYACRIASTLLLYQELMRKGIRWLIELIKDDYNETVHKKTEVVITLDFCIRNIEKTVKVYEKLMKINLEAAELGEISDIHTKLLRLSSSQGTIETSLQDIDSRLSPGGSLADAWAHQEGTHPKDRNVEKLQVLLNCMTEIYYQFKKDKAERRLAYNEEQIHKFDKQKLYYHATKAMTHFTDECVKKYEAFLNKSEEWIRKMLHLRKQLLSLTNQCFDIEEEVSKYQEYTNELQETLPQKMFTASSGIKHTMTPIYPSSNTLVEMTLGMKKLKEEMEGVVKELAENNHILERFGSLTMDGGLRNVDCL
kinase named in conditions (Homo sapiens, UniProt P34947), sequence (P34947 whole entry): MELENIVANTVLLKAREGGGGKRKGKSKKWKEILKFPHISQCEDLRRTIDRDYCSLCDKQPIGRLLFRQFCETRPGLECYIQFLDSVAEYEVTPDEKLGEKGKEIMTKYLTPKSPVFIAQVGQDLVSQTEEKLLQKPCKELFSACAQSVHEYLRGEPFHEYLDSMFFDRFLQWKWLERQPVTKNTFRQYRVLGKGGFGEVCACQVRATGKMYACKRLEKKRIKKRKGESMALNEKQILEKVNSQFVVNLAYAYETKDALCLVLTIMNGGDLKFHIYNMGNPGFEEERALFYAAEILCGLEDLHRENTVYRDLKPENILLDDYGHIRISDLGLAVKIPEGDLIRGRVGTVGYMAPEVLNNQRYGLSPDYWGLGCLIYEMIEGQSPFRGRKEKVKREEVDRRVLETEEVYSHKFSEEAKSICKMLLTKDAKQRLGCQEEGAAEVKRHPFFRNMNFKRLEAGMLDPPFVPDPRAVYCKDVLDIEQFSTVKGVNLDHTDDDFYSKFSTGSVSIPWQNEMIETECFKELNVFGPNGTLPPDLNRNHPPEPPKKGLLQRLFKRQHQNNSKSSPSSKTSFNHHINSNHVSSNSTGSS
kinase named in conditions (Homo sapiens, UniProt P09769), sequence (P09769 whole entry): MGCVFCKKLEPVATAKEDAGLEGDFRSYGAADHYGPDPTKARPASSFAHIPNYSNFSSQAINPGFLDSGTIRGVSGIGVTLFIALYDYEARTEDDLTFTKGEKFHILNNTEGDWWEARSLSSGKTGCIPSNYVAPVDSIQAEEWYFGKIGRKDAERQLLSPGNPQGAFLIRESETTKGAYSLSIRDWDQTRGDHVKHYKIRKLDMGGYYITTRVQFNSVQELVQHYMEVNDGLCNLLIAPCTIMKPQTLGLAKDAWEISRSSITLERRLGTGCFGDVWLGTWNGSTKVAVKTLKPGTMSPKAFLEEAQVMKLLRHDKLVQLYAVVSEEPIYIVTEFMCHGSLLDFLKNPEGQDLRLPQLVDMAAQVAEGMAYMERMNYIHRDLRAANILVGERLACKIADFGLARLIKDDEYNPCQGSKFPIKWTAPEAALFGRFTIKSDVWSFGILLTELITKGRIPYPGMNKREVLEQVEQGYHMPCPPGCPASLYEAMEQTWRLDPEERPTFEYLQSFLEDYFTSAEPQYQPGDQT
kinase named in conditions (Homo sapiens, UniProt P49761), sequence (P49761 whole entry): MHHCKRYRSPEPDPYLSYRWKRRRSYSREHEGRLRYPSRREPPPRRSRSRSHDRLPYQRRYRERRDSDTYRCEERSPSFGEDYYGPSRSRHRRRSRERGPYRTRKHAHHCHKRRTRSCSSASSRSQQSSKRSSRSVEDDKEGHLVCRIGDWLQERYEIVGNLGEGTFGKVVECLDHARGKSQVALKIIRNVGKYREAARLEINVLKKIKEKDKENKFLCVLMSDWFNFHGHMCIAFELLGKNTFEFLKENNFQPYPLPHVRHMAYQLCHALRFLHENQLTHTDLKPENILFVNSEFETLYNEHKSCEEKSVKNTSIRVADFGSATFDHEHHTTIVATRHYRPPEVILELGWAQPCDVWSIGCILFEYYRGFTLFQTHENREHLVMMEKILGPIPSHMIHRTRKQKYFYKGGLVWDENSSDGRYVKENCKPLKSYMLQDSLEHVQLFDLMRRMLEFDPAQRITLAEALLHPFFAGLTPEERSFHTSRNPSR
kinase named in conditions (Homo sapiens, UniProt Q9NWZ3), sequence (Q9NWZ3 whole entry): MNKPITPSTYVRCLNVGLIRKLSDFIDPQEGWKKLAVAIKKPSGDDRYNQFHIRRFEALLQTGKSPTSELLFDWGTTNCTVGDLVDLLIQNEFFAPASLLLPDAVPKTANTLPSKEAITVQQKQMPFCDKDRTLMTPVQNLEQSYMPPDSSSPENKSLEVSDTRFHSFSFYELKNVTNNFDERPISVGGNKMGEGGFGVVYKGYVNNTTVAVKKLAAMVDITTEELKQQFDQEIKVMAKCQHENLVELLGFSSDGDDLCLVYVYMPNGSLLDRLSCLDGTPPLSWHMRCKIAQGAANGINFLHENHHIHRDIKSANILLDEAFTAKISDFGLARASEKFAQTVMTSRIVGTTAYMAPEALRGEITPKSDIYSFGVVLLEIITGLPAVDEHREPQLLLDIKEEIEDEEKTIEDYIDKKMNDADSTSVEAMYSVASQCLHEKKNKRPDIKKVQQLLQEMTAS
kinase named in conditions (Homo sapiens, UniProt P49841), sequence (P49841 whole entry): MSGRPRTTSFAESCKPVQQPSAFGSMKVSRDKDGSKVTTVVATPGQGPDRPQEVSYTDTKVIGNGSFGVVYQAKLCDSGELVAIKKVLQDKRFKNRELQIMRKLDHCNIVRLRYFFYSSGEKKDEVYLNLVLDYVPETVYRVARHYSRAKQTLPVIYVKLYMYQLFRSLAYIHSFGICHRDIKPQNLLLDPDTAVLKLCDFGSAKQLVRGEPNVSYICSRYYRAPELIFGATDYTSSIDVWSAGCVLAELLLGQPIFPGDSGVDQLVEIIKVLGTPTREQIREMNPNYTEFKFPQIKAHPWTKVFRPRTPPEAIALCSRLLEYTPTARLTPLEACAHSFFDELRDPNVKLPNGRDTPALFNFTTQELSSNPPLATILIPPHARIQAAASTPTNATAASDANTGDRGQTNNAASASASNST

**Q.** How did the inhibition at 10 µM [1] turn out when `FC(F)(F)c1c(Cl)ccc(-n2ccnn2)c1Cl` [8l, 1-(2,4-Dichloro-3-(trifluoromethyl)phenyl)-1H-1,2,3-triazole] was run?
**A.** 2%

**Q.** And the inhibition at 10 µM [2]?
**A.** 5%

**Q.** And the inhibition at 10 µM [3]?
**A.** -11%

**Q.** And the inhibition at 10 µM [4]?
**A.** 13%

**Q.** What about the inhibition at 10 µM [5] of the same compound?
**A.** 2%

**Q.** And the inhibition at 10 µM [6]?
**A.** 1%

**Q.** What about the inhibition at 10 µM [7] of the same compound?
**A.** 5%

**Q.** And the inhibition at 10 µM [8]?
**A.** -2%

**Q.** What about the inhibition at 10 µM [9] of the same compound?
**A.** -2%

**Q.** What about the inhibition at 10 µM [10] of the same compound?
**A.** -1%

**Q.** What about the inhibition at 10 µM [11] of the same compound?
**A.** 6%

**Q.** What about the inhibition at 10 µM [12] of the same compound?
**A.** 17%

**Q.** And the inhibition at 10 µM [13]?
**A.** 4%

**Q.** What about the inhibition at 10 µM [14] of the same compound?
**A.** 4%

**Q.** What about the inhibition at 10 µM [15] of the same compound?
**A.** 12%

**Q.** What about the inhibition at 10 µM [16] of the same compound?
**A.** -3%

**Q.** And the inhibition at 10 µM [17]?
**A.** 4%

**Q.** And the inhibition at 10 µM [18]?
**A.** 2%

**Q.** And the inhibition at 10 µM [19]?
**A.** -8%

**Q.** And the inhibition at 10 µM [20]?
**A.** 24%

**Q.** And the inhibition at 10 µM [21]?
**A.** 0%

**Q.** What about the inhibition at 10 µM [22] of the same compound?
**A.** 6%

**Q.** What about the inhibition at 10 µM [23] of the same compound?
**A.** 9%

**Q.** What about the inhibition at 10 µM [24] of the same compound?
**A.** 7%

**Q.** What about the inhibition at 10 µM [25] of the same compound?
**A.** 1%

**Q.** What about the inhibition at 10 µM [26] of the same compound?
**A.** 0%

**Q.** What about the inhibition at 10 µM [27] of the same compound?
**A.** 3%

**Q.** And the inhibition at 10 µM [28]?
**A.** 10%

**Q.** And the inhibition at 10 µM [29]?
**A.** -5%

**Q.** And the inhibition at 10 µM [30]?
**A.** 2%

**Q.** What about the inhibition at 10 µM [31] of the same compound?
**A.** 1%

**Q.** What about the inhibition at 10 µM [32] of the same compound?
**A.** 2%

**Q.** What about the inhibition at 10 µM [33] of the same compound?
**A.** 2%

**Q.** And the inhibition at 10 µM [34]?
**A.** -3%
